Source: ChEMBL document CHEMBL4699595, “Ganoweberianones A and B, Antimalarial Lanostane Dimers from Cultivated Fruiting Bodies of the Basidiomycete Ganoderma weberianum” (J Nat Prod, 2020)
Calls of active or inactive are those of the source. The rule behind the calls is not given here.

Legend:
Plasmodium falciparum = experiment: Antimalarial activity against multi drug-resistant Plasmodium falciparum K1 infected in human erythrocytes assessed as reduction in parasite growth preincubated for 24 hrs followed by [3H]hypoxanthine addition and measured after 18 hrs by scintillation counting method; assay type: functional, organism-based; conditions: K1, Erythrocyte
Vero = experiment: Cytotoxicity against African green monkey Vero cells assessed as reduction in cell viability by tryphan blue exclusion method; assay type: cell-based; conditions: Chlorocebus sabaeus
[1] = tested on: Mycobacterium tuberculosis; experiment: Antimycobacterial activity against Mycobacterium tuberculosis H37Ra ATCC 25177; assay type: functional, organism-based
[2] = Selectivity index, ratio of IC50 for cytotoxicity against African green monkey Vero cells to IC50 for antimalarial activity against multi drug-resistant Plasmodium falciparum K1 infected in human erythrocytes; assay type: toxicity, cell-based; conditions: read-out: Ratio IC50

| Structure (SMILES) | IC50 (Plasmodium falciparum) | IC50 (Vero) | Activity [1] | selectivity ratio [2] |
| --- | --- | --- | --- | --- |
| C[C@H](CC(=O)C[C@H](C)C(=O)O)[C@H]1C[C@@H](O)[C@@]2(C)C3=C(C(=O)C[C@]12C)[C@@]1(C)CC[C@@H](O)C(C)(C)[C@@H]1CC3=O | ≥ 17 µM | ≥ 87 µM | inactive |  |
| CC(=O)O[C@@H]1C(=O)C2=C(C(=O)C[C@H]3C(C)(C)C(=O)CC[C@]23C)[C@]2(C)[C@H](O)C[C@H]([C@H](C)CC(=O)C[C@H](C)C(=O)O)[C@@]12C | ≥ 17 µM | ≥ 87 µM | inactive |  |
| C[C@H](CC[C@H](OC(=O)[C@@H](C)CC(=O)C[C@@H](C)[C@H]1C[C@@H](O)[C@@]2(C)C3=C(C(=O)C[C@]12C)[C@@]1(C)CC[C@@H](O)C(C)(C)[C@@H]1CC3=O)[C@](C)(O)CO)[C@H]1CC[C@@]2(C)C3=CC[C@H]4C(C)(C)C(=O)CC[C@]4(C)C3=CC[C@]12C | 0.46 µM | 10 µM | inactive | 2.2 |
| C[C@H](CC[C@H](OC(=O)[C@@H](C)CC(=O)C[C@@H](C)[C@H]1C[C@@H](O)[C@@]2(C)C3=C(C(=O)C[C@]12C)[C@@]1(C)CCC(=O)C(C)(C)[C@@H]1CC3=O)[C@](C)(O)CO)[C@H]1CC[C@@]2(C)C3=CC[C@H]4C(C)(C)C(=O)CC[C@]4(C)C3=CC[C@]12C | 0.05 µM | 0.21 µM | inactive | 4.2 |
| C[C@H](CC(=O)C[C@H](C)C(=O)O)[C@H]1C[C@@H](O)[C@@]2(C)C3=C(C(=O)[C@@H](O)[C@]12C)[C@@]1(C)CCC(=O)C(C)(C)[C@@H]1CC3=O | ≥ 17 µM | ≥ 87 µM | inactive |  |
| C[C@H](CC(=O)C[C@H](C)C(=O)O)[C@H]1C[C@@H](O)[C@@]2(C)C3=C(C(=O)C[C@]12C)[C@@]1(C)CCC(=O)[C@@](C)(CO)[C@@H]1CC3=O | ≥ 17 µM | ≥ 87 µM | inactive |  |
| C[C@H](CC(=O)C[C@H](C)C(=O)O)[C@H]1C[C@@H](O)[C@@]2(C)C3=C(C(=O)C[C@]12C)[C@@]1(C)CCC(=O)C(C)(C)[C@@H]1CC3=O | ≥ 17 µM | ≥ 87 µM | inactive |  |
